Source: ChEMBL document CHEMBL5303304, “EUbOPEN Chemogenomics Library - IncuCyte” (2023)

What was measured:
Format in all cases: toxicity, cell-based
U2OS = experiment: Incucyte cell viability with U2OS; details: human, 10 µM, compound concentration 10 uM
Fibroblast = experiment: Incucyte cell viability with human fibroblast; details: 10 µM, compound concentration 10 uM
HEK-293T = experiment: Incucyte cell viability with HEK293T; details: human, 10 µM, compound concentration 10 uM
Further: unitless GR value; below 1 slowed growth and below 0 cell loss.

| Compound | Growth Rate (U2OS; 0 h, replicate number 1) | Growth Rate (U2OS; 6 h, replicate number 1) | Growth Rate (U2OS; 12 h, replicate number 1) | Growth Rate (U2OS; 24 h, replicate number 1) | Growth Rate (Fibroblast; 0 h, replicate number 1) | Growth Rate (Fibroblast; 12 h, replicate number 1) | Growth Rate (Fibroblast; 12 h, replicate number 2) | Growth Rate (Fibroblast; 18 h, replicate number 1) | Growth Rate (Fibroblast; 18 h, replicate number 2) | Growth Rate (Fibroblast; 24 h, replicate number 2) | Growth Rate (HEK-293T; 6 h, replicate number 2) | Growth Rate (Fibroblast; 0 h, replicate number 2) | Growth Rate (Fibroblast; 6 h, replicate number 2) | Growth Rate (U2OS; 18 h, replicate number 1) | Growth Rate (Fibroblast; 6 h, replicate number 1) | Growth Rate (Fibroblast; 24 h, replicate number 1) | Growth Rate (U2OS; 12 h, replicate number 2) | Growth Rate (U2OS; 18 h, replicate number 2) | Growth Rate (U2OS; 24 h, replicate number 2) | Growth Rate (HEK-293T; 12 h, replicate number 1) | also measured |
| --- | --- | --- | --- | --- | --- | --- | --- | --- | --- | --- | --- | --- | --- | --- | --- | --- | --- | --- | --- | --- | --- |
| CC(C)n1nc(-c2cnc(N)c(OC(F)(F)F)c2)cc1[C@H]1[C@@H]2CN(C3COC3)C[C@@H]21 | 0.6 | 0.76 | 0.92 | 0.84 | 0.52 | -0.97 | 0.78 | 0.08 | 0.91 | 0.95 | 0.62 | – | – | – | – | – | – | – | – | – | – |
| O=C(Nc1cc(C(F)(F)F)ccc1N1CCCCC1)c1ccncc1 | 0.2 | – | – | – | – | – | 0.6 | – | 0.93 | 0.9 | 0.49 | -0.43 | 0.12 | – | – | – | – | – | – | – | Growth Rate (U2OS; 6 h, replicate number 2): 0.58 |
| C[C@@H](c1ccc(F)cc1)n1nnc2cnc3ccc(-c4ccc5ocnc5c4)cc3c21 | -0.74 | – | – | 0.82 | 0.85 | -0.93 | – | 0.35 | – | – | 0.07 | -0.11 | 0.8 | 0.87 | -0.77 | 1 | – | – | – | – | Growth Rate (U2OS; 0 h, replicate number 2): 0.17; Growth Rate (HEK-293T; 12 h, replicate number 2): 0.99 |
| CCCN1C(=O)c2ccc(Cl)cc2Nc2ncccc21 | 0.38 | 0.65 | – | 0.98 | -1 | 0.9 | 0.55 | 0.68 | 0.62 | – | – | – | -0.63 | – | 0.56 | 0.63 | 0.68 | 0.91 | – | – | Growth Rate (HEK-293T; 12 h, replicate number 2): 0.86 |
| CP(C)(=O)c1ccc(CNC(=O)C2CCN(S(=O)(=O)c3cc(Cl)cc(Cl)c3)CC2)cc1 | 0.11 | 0.37 | 0.74 | 0.87 | – | – | – | – | – | – | – | -0.94 | – | 0.74 | – | – | 0.85 | 0.9 | 0.89 | 0.93 | Growth Rate (HEK-293T; 18 h, replicate number 1): 0.9; Growth Rate (HEK-293T; 24 h, replicate number 1): 0.89 |
| Cc1ccc(-c2cn3nc(C(=O)NC4(c5ccc(F)cc5)CN(C)C4)c(C(C)C)c3c(=O)[nH]2)cc1C | – | 0.98 | 0.9 | 0.31 | -1 | 0.22 | 0.19 | 0.16 | 0.26 | 0.27 | – | – | 0.39 | 0.59 | – | 0.16 | 0.86 | 0.74 | 0.61 | 0.66 | Growth Rate (HEK-293T; 18 h, replicate number 1): 0.19; Growth Rate (HEK-293T; 18 h, replicate number 2): 0.21; Growth Rate (HEK-293T; 24 h, replicate number 1): 0.07; Growth Rate (HEK-293T; 24 h, replicate number 2): 0.09 |
| COc1ccccc1[C@@H]1CNCCC12CCN(C(=O)[C@](OC)(c1ccccc1)C(F)(F)F)CC2 | -0.8 | 0.37 | 0.85 | 0.53 | -1 | 0.93 | 0.7 | 0.54 | 0.97 | 0.68 | – | – | – | 0.73 | 0.9 | 0.63 | – | 0.99 | 0.82 | 0.43 | Growth Rate (U2OS; 0 h, replicate number 2): 0.59; Growth Rate (HEK-293T; 18 h, replicate number 1): 0.28; Growth Rate (HEK-293T; 18 h, replicate number 2): 0.64; Growth Rate (HEK-293T; 24 h, replicate number 1): 0.22; Growth Rate (HEK-293T; 24 h, replicate number 2): 0.34 |
| CC1CCN(C(=O)[C@@H](CCn2cccc2C#N)NS(=O)(=O)c2cccc3[nH]ccc23)CC1 | 0.26 | 0.55 | – | 0.86 | – | – | – | – | 0.96 | – | 0.99 | -0.84 | – | – | – | – | 0.81 | – | – | – | Growth Rate (U2OS; 6 h, replicate number 2): 0.85 |
